In patent US12435091B2, “RNA-binding protein multimerization inhibitors and methods of use thereof” (THE UAB RESEARCH FOUNDATION, priority 2020, dated 2025):
Values after ≈ are worked out from the molar mass of the structure shown. Read-outs that look alike come from different tables or passages of the source.

How the values were obtained:
[1] = aqueous solubility at pH 7.4; format: physicochemical; settings: for solubility: aqueous medium at pH 7.4, pH 7.4, aqueous buffer, read-out: Sol @ pH 7.4
Experimental: (§3) Selected compounds were assessed for their aqueous solubility, Log D and mouse and human liver microsomal stability.

[2] = Log D at pH 7.4; format: physicochemical
Experimental: as §3

[3] = target: T1, HuR (Homo sapiens, UniProt Q15717); assay: cell-based split firefly luciferase-HuR dimerization assay; settings: for IC50: read-out: HuR IC50
T1 construct: expressed in transfected cells; host or cells: U251 glioma cells, doxycycline-inducible constructs
T1 sequence (Q15717 whole entry): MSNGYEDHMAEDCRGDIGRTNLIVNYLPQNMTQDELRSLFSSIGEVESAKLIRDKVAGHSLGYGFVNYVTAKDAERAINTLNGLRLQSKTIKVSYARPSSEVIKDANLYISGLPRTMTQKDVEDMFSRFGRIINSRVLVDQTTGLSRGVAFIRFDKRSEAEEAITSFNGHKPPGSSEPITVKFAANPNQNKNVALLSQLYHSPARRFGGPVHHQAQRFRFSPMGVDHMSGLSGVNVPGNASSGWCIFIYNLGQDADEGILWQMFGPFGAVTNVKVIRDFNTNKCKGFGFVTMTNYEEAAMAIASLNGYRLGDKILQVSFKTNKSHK
Experimental: (§1) The oncogenic activity of HuR is driven by subcellular localization into the cytoplasm and formation of multimers of HuR. To develop cell based assays to characterize the ability of small molecules to disrupt this process, a split luciferase assay detecting the formation of HuR dimers was developed. The assays were performed in 96 well plates with clear bottom (Corning Inc., Corning, NY). Cells with designed constructs (30,000-50,000 in number) were plated per well; the constructs were induced by doxycycline (0.75 ug/ml) for 48 hours. The evaluated compounds at different concentrations and the corresponding vehicle as the control were administered for 6 hours. The luminescence signals were detected by using InfinitiM200 plate reader (TECAN, Morrisville, NC) in the presence of the luciferase substrate luciferin (D-Luciferin, potassium salt), which was purchased from GoldBio (St Louis, MO). A multichannel pipette (XL 3000I™, Denville Scientific, South Plainfield, NJ) was used in all procedures to ensure the experiment quality.
The assay used the coding sequence of HuR in frame with the N-terminus of firefly luciferase or the C-terminus as depicted in FIG. 2A. When HuR forms dimers in this case, luciferase is generated and with luciferin present, luminescence is generated.
(§2) Squares represent luminescence signal from reporter representing HuR dimers (U251 cells co-expressing HuR-Nluc and HuR-Cluc constructs); circles represent luminescence signal from control reporter (U251 cells expressing Fluc construct). Results are shown as mean+SD.

[4] = system: U251 cells expressing Fluc construct; assay: control Fluc (full length luciferase) reporter assay in U251 cells; format: cell-based; settings: Homo sapiens, U-251, 6 h, read-out: Fluc Imax % Inh; for inhibition at 100 µM: Concn 100 uM; for inhibition at 50 µM: Concn 50 uM; for inhibition at 25 µM: Concn 25 uM
Experimental: as §1, with “quality. […]” for “quality.”
as §2

[5] = in vitro; settings: human, liver microsomes
Experimental: as §3

[6] = Mouse liver microsomal stability in vitro; format: in vitro ADME; settings: liver microsomes, read-out: MLM t1/2
Experimental: as §3

[7] = U251 cells co-expressing HuR-Nluc and HuR-Cluc, 6 hours of treatment
[8] = split luciferase HuR dimerization assay, compounds administered for 6 hours

Structure (SMILES)	logD [2]	IC50 [3, 7] [nM]	IC50 [3, 8] [nM]	solubility [1] [µM]	half-life [5] [min]	half-life [6] [min]	HuR N/C Imax % Inh ([3]; Concn 50 uM) [%]	inhibition at 50 µM [4] [%]	other results
CN(c1cnn(C2CCOCC2)c1)c1ncc2nnn(-c3ccc4cn[nH]c4c3)c2n1 [Compound 3, 3-(1H-Indazol-6-yl)-N-methyl-N-(1-(tetrahydro-2H-pyran-4-yl)-1H-pyrazol-4-yl)-3H-[1,2,3]triazolo[4,5-d]pyrimidin-5-amine]									aqueous solubility (in words) [1]: poor aqueous solubility
CCCN(C)c1ccc2ncc(-c3ccc4cn[nH]c4c3)n2n1 [Compound 24, 3-(1H-Indazol-6-yl)-N-methyl-N-propylimidazo[1,2-b]pyridazin-6-amine]	> 4.18	2200	2200	10.9 (≈ 3.34 µg/mL)	9.7	3.1			HuR N/C Imax % Inh ([3]; Concn 100 uM): 93%; inhibition at 100 µM [4]: 10%
CCCN(C)c1ccc2ncc(-c3ccc4cnn(C)c4c3)n2n1 [Compound 30, N-Methyl-3-(1-methyl-1H-indazol-6-yl)-N-propylimidazo[1,2-b]pyridazin-6-amine]	> 4.55	2200	2200	2.5 (≈ 0.801 µg/mL)	7.9	1.3	91	36	
CC1(C)CC(Nc2ccc3ncc(-c4ccc5[nH]ncc5c4)n3n2)CCO1 (centres unmarked) [Compound 45, N-(2,2-Dimethyltetrahydro-2H-pyran-4-yl)-3-(1H-indazol-5-yl)imidazo[1,2-b]pyridazin-6-amine]	> 4.06	1100	1100	3.4 (≈ 1.23 µg/mL)	7.2	8.7	92	25	HuR inhibition activity (in words) [3]: potent activity
FC(F)(F)CNc1ccc2ncc(-c3ccc4[nH]ncc4c3)n2n1 [Compound 50, 3-(1H-Indazol-5-yl)-N-(2,2,2-trifluoroethyl)imidazo[1,2-b]pyridazin-6-amine]	> 4.15	190	190	2.6 (≈ 0.864 µg/mL)	12.1	2.6	93	26	
FC1(F)CCC(Nc2ccc3ncc(-c4ccc5[nH]ncc5c4)n3n2)CC1 [Compound 46, N-(4,4-Difluorocyclohexyl)-3-(1H-indazol-5-yl)imidazo[1,2-b]pyridazin-6-amine]	> 4.16	2100	2100	1 (≈ 0.368 µg/mL)	11.5	4.4	91	17	
CN(c1ccc2ncc(-c3ccc4cn[nH]c4c3)n2n1)C1CCC(F)(F)CC1 [Compound 29]	0.9			77.3 (≈ 29.6 µg/mL)	82.8	15.3			HuR IC50 [3, 8]: Insoluble^b
CN1CCN(c2ccc3ncc(-c4ccc5[nH]ncc5c4)n3n2)CC1 [Compound 52, 3-(1H-Indazol-5-yl)-6-(4-methylpiperazin-1-yl)imidazo[1,2-b]pyridazine]		8000	8000				90	13	
CCCNc1ccc2ncc(-c3ccc4[nH]ncc4c3)n2n1 [Compound 48]		700	700	3.2 (≈ 0.936 µg/mL)	6.1	2.2	90	29	
Cc1ccc(S(=O)(=O)NC(C(=O)Oc2ccc3c4c(c(=O)oc3c2C)CCC4)c2ccccc2)cc1 (centres unmarked) [SRI-43651]							0	0	
FC(F)(F)c1nnc2ccc(NCCc3c[nH]c4ccccc34)nn12 [SRI-41639]		> 100000							HuR N/C Imax % Inh ([3]; Concn 100 uM): 49%; inhibition at 100 µM [4]: 17%
Cc1n[nH]c2cc(-c3cnc4ccc(N(C)C5CCOCC5)nn34)ccc12 [Compound 32, N-Methyl-3-(3-methyl-1H-indazol-6-yl)-N-(tetrahydro-2H-pyran-4-yl)imidazo[1,2-b]pyridazin-6-amine]	> 4.35		> 50000	< 1	9	7.3			
c1ccc(CNc2ccc3ncc(-c4ccc5[nH]ncc5c4)n3n2)cc1 [Compound 47, N-Benzyl-3-(1H-indazol-5-yl)imidazo[1,2-b]pyridazin-6-amine]		3000	3000				93	24	
O=C(C1CCCC1)N1CCN(C(=O)C2CC2c2ccc3c(c2)OCO3)CC1 (centres unmarked) [SRI-43655]		> 50000					28	10	
c1cc2cn[nH]c2cc1-c1cnc2ccc(OC3CCOCC3)nn12 [Compound 58]			3000				82	23	
FC1(F)CCC(Nc2ccc3ncc(-c4ccc5cn[nH]c5c4)n3n2)CC1 [Compound 23, N-(4,4-Difluorocyclohexyl)-3-(1H-indazol-6-yl)imidazo[1,2-b]pyridazin-6-amine]	> 4.23	2800	2800	2.1 (≈ 0.774 µg/mL)	27.3	3.9	92	39	
c1cc2cn[nH]c2cc1-n1nnc2cnc(NC3CCOCC3)nc21 [Compound 4, 3-(1H-Indazol-6-yl)-N-(tetrahydro-2H-pyran-4-yl)-3H-[1,2,3]triazolo[4,5-d]pyrimidin-5-amine]		5000					85	36	aqueous solubility (in words) [1]: improved aqueous solubility
CN(c1ccc2ncc(-c3ccc4cn[nH]c4c3)n2n1)C1CCCCC1 [Compound 22, N-Cyclohexyl-3-(1H-indazol-6-yl)-N-methylimidazo[1,2-b]pyridazin-6-amine]		9000	9000				93	32	
c1cc2[nH]ncc2cc1-c1cnc2ccc(NC3CCOCC3)nn12 [Compound 39, 3-(1H-Indazol-5-yl)-N-(tetrahydro-2H-pyran-4-yl)imidazo[1,2-b]pyridazin-6-amine]			300						HuR N/C Imax % Inh ([3]; Concn 25 uM): 94%; inhibition at 25 µM [4]: 28%
CCCN(C)c1ccc2ncc(-c3ccc4[nH]nc(C(C)=O)c4c3)n2n1 [Compound 53, 1-(5-(6-(Methyl(propyl)amino)imidazo[1,2-b]pyridazin-3-yl)-1H-indazol-3-yl)ethan-1-one]	> 4.48	6000	6000	< 1	6.3	1.3	72	10	
CN(CCNc1ccc2ncc(-c3ccc(C(N)=O)cc3)n2n1)C(=O)OC(C)(C)C [SRI-43415]		40000					57	9	
Cn1ncc2ccc(-c3cnc4ccc(NC5CCOCC5)nn34)cc21 [Compound 20]	2.9	1200	1200	79.6 (≈ 27.7 µg/mL)	11.6	8.1	93	35	
CN(c1ccc2ncc(-c3ccc4[nH]cnc4c3)n2n1)C1CCOCC1 [Compound 37, 3-(1H-Benzo[d]imidazol-5-yl)-N-methyl-N-(tetrahydro-2H-pyran-4-yl)imidazo[1,2-b]pyridazin-6-amine]		8000	8000				87	14	
CN(c1ccc2ncc(-c3ccc4cc[nH]c4c3)n2n1)C1CCOCC1 [Compound 13]	2.2		28000	12.8 (≈ 4.45 µg/mL)	6.8	5.6			
CN(c1ccc2ncc(-c3ccc4[nH]ncc4c3)n2n1)C1CCOCC1 [Compound 40, 3-(1H-Indazol-5-yl)-N-methyl-N-(tetrahydro-2H-pyran-4-yl)imidazo[1,2-b]pyridazin-6-amine]			300						HuR N/C Imax % Inh ([3]; Concn 25 uM): 90%; inhibition at 25 µM [4]: 23%
